Results as given in patent publication US20150038707A1, “PROCESS FOR MAKING CGRP RECEPTOR ANTAGONISTS” (Merck Sharp & Dohme Corp., priority 2012, published 2015).
“And” between values parts separate entries of the source, which are not always exact repeats. Identical values can stand only once.

Experiments:
[1] = system: mosquitoes (Ae. aegypti); test: Compound residual life: contact irritancy (Example 10); format: in vivo; conditions: for Number escaping (mean +/- SE), treated: 10 mosquitoes per run, 6 runs per net sample
Protocol: (§1) Four compounds of formula (I) were tested for contact irritancy (i.e., movement away from the source after physical contact) at low doses on female Aedes aegypti (Thailand strain) mosquitoes. The contact irritant response was determined by use of the contact irritant assay disclosed by Grieco et al. in “A New Classification System for the Actions of IRS Chemicals Traditionally Used for Malaria Control,” Plos One, Issue 8 (2007) (available at www.plosone.org). The assay used was a cylindrical assembly that included a metal treatment end to which 10 mosquitoes were introduced and a clear receiving chamber. The treatment end included a netting strip (nylon organdy) that was treated with the insecticide of interest at the relevant dose. A butterfly valve separated the treatment end from the remainder of the assembly.
Contact irritancy tests (blind testing) were performed for several samples of compounds 1405 and 1406 at 0 weeks, 2 weeks, 4 weeks, 8 weeks and 12 weeks to determine the residual contact irritancy of the compounds on mosquitoes (Ae. aegypti). Between testing, the nets were hung in the lab and held at a temperature of 27-29° C. and 56-67% relative humidity. Each run was performed 6 times for each sample with 10 mosquitoes used in each run (60 mosquitoes total).

[2] = system: female Aedes aegypti (Thailand strain) mosquitoes; test: Contact irritancy assay on mosquitoes (Example 2); format: in vivo; conditions: netting treated at 0.0025-2.5 nmol/cm^2; 10 minutes
Protocol: as §1
(§2) Each composition was applied to the netting strip at a varied dose via a 1.5 ml acetone solution. Four (4) treatment concentrations were used—0.0025 nmol/cm^2, 0.025 nmol/cm^2, 0.25 nmol/cm^2 and 2.5 nmol/cm^2. Netting was allowed to dry for 15 minutes prior to placement in the cylinder. Control assays were performed with netting treated with acetone only.
(§3) For each run, 10 mosquitoes were transferred into the treatment end of the assembly and, after 30 seconds, the butterfly valve was opened. The valve was closed after 10 minutes and the number of mosquitoes in the clear end (i.e., the number of escaped mosquitoes) was tested.

[3] = system: female Aedes aegypti (Thailand strain) mosquitoes; test: Contact irritancy and spatial repellency screening (Example 4); format: in vivo; conditions: Dosage 25 nmol/cm^2; mapped with 3000 other compounds
Protocol: as §1
(§4) The four compounds of formula I described in Example 2 were tested for spatial repellency (directed movement away from the chemical source without the insect making physical contact with the treated surface) at low doses on female Aedes aegypti (Thailand strain) mosquitoes. The spatial repellency response was determined by use of the spatial repellency assay disclosed by Grieco et al. in “A New Classification System for the Actions of IRS Chemicals Traditionally Used for Malaria Control” in Plos One, Issue 8 (2007) (available at www.plosone.org) which is incorporated herein by reference for all relevant and consistent purposes. The assay used was a cylindrical assembly that included a treatment chamber at one end and a control chamber at the other end. The treatment chamber included a netting strip (nylon organdy) that was treated with the insecticide of interest at the relevant dose. The treatment chamber and control chamber were connected by a clear cylinder and were separated from the clear cylinder by butterfly valves. Twenty (20) mosquitoes were introduced into the clear central chamber and the butterfly valves were opened after 30 seconds. After 10 minutes, the valves were closed and the number of mosquitoes in each chamber was counted.
Dosage was 25 nmol/cm^2. Several known compounds were also mapped for comparison—alphacypermethrin, cypermethrin, propoxur, bendiocarb, permethrin, SS220, DDT, deet and chlorpyrifos.

[4] = system: Susceptible An. Gambiae; test: Bottle toxicity assay (Example 8), susceptible mosquitoes; format: in vivo, Anopheles gambiae
Protocol: Several compounds were tested to determine their toxic effect on knockdown resistant Anopheles gambiae mosquitoes and susceptible mosquitoes. Acetone and different amounts of pesticides were added to 250 ml bottles. In one bottle, only acetone was added as a control. The bottles were rotated in all directions while uncapped until all acetone was evaporated and the insecticide was coated onto the inside surfaces of the bottle. A number of knockdown resistant Anopheles gambiae mosquitoes were added to the bottle. The number of dead mosquitoes was recorded at 1 hour and 24 hours.

[5] = system: Ae. aegypti Houston strain (pyrethroid susceptible); test: Toxicity assay on treated netting (Example 7), Houston strain; format: in vivo
Protocol: Several compounds were tested to determine their toxic effect on Ae. aegypti mosquitoes. Three mosquito strains were tested—Houston which is pyrethroid susceptible, That which is pyrethroid tolerant and Isla Mujer which is metabolically pyrethroid resistant.
The toxicity assay involved a single chamber to which treated netting was added. Twenty (20) mosquitoes were transferred to the chamber. After 1 hour, the number of knocked down mosquitoes was recorded and all mosquitoes were transferred to holding cartoons. The mosquitoes were given a 10% sucrose-soaked cotton ball and returned to the insectary. Mortaility was measured after 24 hours. A control assay using acetone-treated netting was used. Six replicates were performed at each treatment concentration.

[6] = system: Ae. Aegypti strains Houston, That and Isla Mujer; test: Spatial repellency on metabolically resistant mosquitoes (Example 6); format: in vivo
Protocol: as §4
(§5) The spatial repellency protocol of Example 3 was used to determine spatial repellency against mosquitoes (Ae. Aegypti) that had acquired metabolic resistance against pyrethroids. DDT and transfluthrin were also tested. Three mosquito strains were tested—Houston which is pyrethroid susceptible, That which is pyrethroid tolerant and Isla Mujer which is metabolically pyrethroid resistant.

[7] = system: Ae. Aegypti, That strain (pyrethroid tolerant); test: Contact irritancy on pyrethroid tolerant mosquitoes (Example 5); format: in vivo
Protocol: as §1, §2, §3
as §5, with “contact irritancy” for “spatial repellency”, “2” for “3”, “Alphacypermethrin” for “DDT”

[8] = Dose 0.025 μg/bottle, Strain Tested F122, Time 1 hour
[9] = Dose 0.025 μg/bottle, Strain Tested F122, Time 24 hours
[10] = Dose 0.025 μg/bottle, Strain Tested F123, Time 1 hour
[11] = Dose 0.025 μg/bottle, Strain Tested F123, Time 24 hours
[12] = Dose 0.25 μg/bottle, Strain Tested F122, Time 1 hour
[13] = Dose 0.25 μg/bottle, Strain Tested F122, Time 24 hours
[14] = Dose 0.25 μg/bottle, Strain Tested F123, Time 1 hour
[15] = Dose 0.25 μg/bottle, Strain Tested F123, Time 24 hours
[16] = Dose 2.5 μg/bottle, Strain Tested F122, Time 1 hour
[17] = Dose 2.5 μg/bottle, Strain Tested F122, Time 24 hours
[18] = Dose 2.5 μg/bottle, Strain Tested F123, Time 1 hour
[19] = Dose 2.5 μg/bottle, Strain Tested F123, Time 24 hours
[20] = Dose 0.025 nm/cm^2, Time 1 hour
[21] = Dose 0.025 nm/cm^2, Time 24 hours
[22] = Dose 0.0725 nm/cm^2, Time 1 hour
[23] = Dose 0.0725 nm/cm^2, Time 24 hours
[24] = Dose 0.125 nm/cm^2, Time 1 hour
[25] = Dose 0.125 nm/cm^2, Time 24 hours
[26] = Dose 0.25 nm/cm^2, Time 24 hours
[27] = Dose 2.5 nm/cm^2, Time 24 hours

SMILES	Percent escaping (mean ± SE) ([1]; Time 0 week)	Percent escaping (mean ± SE) ([1]; Time 2 week)	Number escaping (mean +/- SE), treated ([1]; Time 2 week)	contact irritancy (FIG. 1) [2]	contact irritancy and spatial repellency relative to screened compounds (FIG. 3) [3]	Susceptible An. Gambiae (% dead (SE)) [4, 8]	Susceptible An. Gambiae (% dead (SE)) [4, 9]	Susceptible An. Gambiae (% dead (SE)) [4, 10]	Susceptible An. Gambiae (% dead (SE)) [4, 11]	Susceptible An. Gambiae (% dead (SE)) [4, 12]	Susceptible An. Gambiae (% dead (SE)) [4, 13]	Susceptible An. Gambiae (% dead (SE)) [4, 14]	Susceptible An. Gambiae (% dead (SE)) [4, 15]	Susceptible An. Gambiae (% dead (SE)) [4, 16]	Susceptible An. Gambiae (% dead (SE)) [4, 17]	Susceptible An. Gambiae (% dead (SE)) [4, 18]	Susceptible An. Gambiae (% dead (SE)) [4, 19]	Houston (% dead (SE)) [5, 20]	Houston (% dead (SE)) [5, 21]	Houston (% dead (SE)) [5, 22]	further results
CC1(C)C(C=C(Cl)C(F)(F)F)C1C(=O)OCc1ccc(F)c(C(F)(F)F)c1F (stereo not shown) [Compound 1405]	90 ± 5% and 80 ± 5% and 85 ± 4% and 88 ± 5%	47 ± 6% and 42 ± 7% and 47 ± 3% and 47 ± 4%	1.7 ± 0.6 and 2.2 ± 0.7 and 1.7 ± 0.4	showed contact irritancy at relatively low doses	superior contact irritancy and spatial repellency relative to most screened compounds	100%	100%	100%	100%	100%	100%	100%	100%	100%	100%	100%	100%	100%	100%	100%	Number escaping (mean +/- SE), treated ([1]; Time 8 week): 1.8 ± 0.5 and 2.2 ± 0.5 and 1.8 ± 0.9 and 1.5 ± 0.6; Susceptible An. Gambiae (% dead (SE)) ([4]; Dose 0.00025 μg/bottle, Strain Tested F123, Time 1 hour): 100%; Susceptible An. Gambiae (% dead (SE)) ([4]; Dose 0.00025 μg/bottle, Strain Tested F123, Time 24 hours): 87%; Susceptible An. Gambiae (% dead (SE)) ([4]; Dose 0.0025 μg/bottle, Strain Tested F122, Time 1 hour): 100%; Susceptible An. Gambiae (% dead (SE)) ([4]; Dose 0.0025 μg/bottle, Strain Tested F122, Time 24 hours): 95%; Susceptible An. Gambiae (% dead (SE)) ([4]; Dose 0.0025 μg/bottle, Strain Tested F123, Time 1 hour): 100%; Susceptible An. Gambiae (% dead (SE)) ([4]; Dose 0.0025 μg/bottle, Strain Tested F123, Time 24 hours): 100%; Susceptible An. Gambiae (% dead (SE)) ([4]; Dose 25 μg/bottle, Strain Tested F123, Time 1 hour): 100%; Susceptible An. Gambiae (% dead (SE)) ([4]; Dose 25 μg/bottle, Strain Tested F123, Time 24 hours): 100%; Houston (% dead (SE)) [5, 23]: 100%; Houston (% dead (SE)) [5, 24]: 100%; Houston (% dead (SE)) [5, 25]: 100%; Houston (% dead (SE)) ([5]; Dose 0.25 nm/cm^2, Time 1 hour): 100%; Houston (% dead (SE)) [5, 26]: 100%; Houston (% dead (SE)) ([5]; Dose 2.5 nm/cm^2, Time 1 hour): 100%; Houston (% dead (SE)) [5, 27]: 100%; spatial repellency, all strains (FIG. 5) [6]: spatial repellants for all strains; contact irritancy, tolerant strain (FIG. 4) [7]: contact irritants for tolerant strains
CC1(C)C(C=C(Cl)Cl)C1C(=O)OCc1ccc(F)c(C(F)(F)F)c1F (stereo not shown) [Compound 1406]	80 ± 2% and 87 ± 4% and 87 ± 7% and 87 ± 10%	57 ± 4% and 63 ± 5% and 58 ± 7% and 62 ± 8%	2.5 ± 0.8 and 2.7 ± 0.3 and 2.2 ± 0.2	showed contact irritancy at relatively low doses	superior contact irritancy and spatial repellency relative to most screened compounds	100%	100%	100%	100%	100%	100%	100%	100%	100%	100%	100%	100%	100%	100%	100%	residual contact irritant activity (in words) ([1]; 12 week test period, nets held at 27-29° C.): the most residual with the highest level of activity out to 12 weeks; Number escaping (mean +/- SE), treated ([1]; Time 0 week): 3.8 ± 0.5 and 3.2 ± 0.5 and 3.2 ± 1.2 and 4.0 ± 1.0; Percent escaping (mean ± SE) ([1]; Time 4 week): 50 ± 10% and 47 ± 4% and 45 ± 4% and 35 ± 8%; Number escaping (mean +/- SE), treated ([1]; Time 4 week): 2.0 ± 0.4 and 2.3 ± 0.5 and 2.5 ± 0.4 and 2.5 ± 0.8; Percent escaping (mean ± SE) ([1]; Time 8 week): 40 ± 10% and 37 ± 2% and 27 ± 7% and 28 ± 9%; Percent escaping (mean ± SE) ([1]; Time 12 week): 37 ± 4% and 31 ± 4% and 22 ± 6% and 19 ± 5%; Houston (% dead (SE)) [5, 23]: 100%; Houston (% dead (SE)) [5, 24]: 100%; Houston (% dead (SE)) [5, 25]: 100%; Houston (% dead (SE)) ([5]; Dose 0.25 nm/cm^2, Time 1 hour): 100%; Houston (% dead (SE)) [5, 26]: 100%; Houston (% dead (SE)) ([5]; Dose 2.5 nm/cm^2, Time 1 hour): 100%; Houston (% dead (SE)) [5, 27]: 100%; spatial repellency, all strains (FIG. 5) [6]: spatial repellants for all strains; contact irritancy, tolerant strain (FIG. 4) [7]: contact irritants for tolerant strains
